Assay results from patent US8084399B2, “Process for screening of a binding amphiphilic peptides specific for hairpin RNA” (priority 2009, dated 2011).
Where no end group is shown, it is not given here. [ ]: non-standard residue; d: D form. Orn = NCCC[C@H](N)C(=O)O; Dab = NCC[C@H](N)C(=O)O

Experiments:
IRES domain IV hairpin = assay: Fluorescence anisotropy competition with Rev-N-rhodamine probe, binding to IRES hairpin; set-up: species or system HCV; settings: for differentiation coefficient (IRES): (mean Kd to other hairpin RNA)/(Kd to one hairpin RNA); for Kd: fluorescence anisotropy, 20° C., pH 7.4, read-out: Dissociation constant, IRES
Description: (§1) Binding force to each target hairpin RNA (IRES, RRE, TAR and 16S A-site) was measured by fluorescence polarization using alanine scanned peptide library (1b-1h).
(§2) Particularly, […] of each target RNA was prepared at the concentration of 10 mM, which stood at 65° C. for 10 minutes and then cooled down slowly at room temperature, leading to folding. The amphiphilic peptide was prepared respectively at the concentration of […], which were maintained at 0° C. As a probe, rev peptide labeled with rhodamine (Rev-N-rhodamine) emitting […] fluorescence was prepared at the concentration of 10 mM. Buffer was composed of 140 mM NaCl, 5 mM KCl, 1 mM MgCl2, and 20 mM HEPES (N-2-Hydroxyethylpiperazine-N′-2-Ethanesulfonic Acid, pH 7.4). Fluorescence Anisotropy was measured using AMINCO-Bowman Series Luminescence Spectrometer at 20° C. Ten nM of the probe was added in […] of buffer, to which target RNA was added to induce interaction between the probe and the target RNA. At that time, anisotropy value increased. Then, the synthesized peptide competing with the probe for binding site was added thereto with increasing the concentration slowly. Changes of fluorescence polarization were measured until fluorescence polarization reached as low as the beginning. Considering the concentration and amount of the peptide added, binding force to target RNA was calculated. That is, the binding strength between target RNA and peptide was determined according to the following KaleidaGraph. [Peptide]=Kd(Amax−A)/[Kd(A−A0)+1]×[RNA]−Kd(A−A0)^2[Probe]0/(Amax−A)(Amax−A0)
(§3) Herein, [Peptide] indicates the concentration of peptide, [RNA] indicates the concentration of target RNA, and [Probe]0 indicates the concentration of probe. A is the value of fluorescence anisotropy of sample, Amax is the value of totally bound tracer, and A0 is the value of totally free tracer.

16S ribosomal RNA A-site = assay: Fluorescence anisotropy competition with Rev-N-rhodamine probe, binding to 16S A-site; settings: 20° C., pH 7.4, read-out: Dissociation constant, 16S A-site
Description: as §1, §2, §3

TAR hairpin RNA = assay: Fluorescence anisotropy competition with Rev-N-rhodamine probe, binding to TAR hairpin RNA; set-up: species or system HIV; settings: for Kd: fluorescence anisotropy, 20° C., pH 7.4, read-out: Dissociation constant, TAR
Description: as §1, §2, §3

[1] = Circular dichroism (CD), percentage of alpha-helix; format: physicochemical; settings: CD at 20° C., condition not given; for Alpha-helical rate (%), second value of pair: value after the slash; for Alpha-helical rate (%), first value of pair: value before the slash
Description: To investigate alpha-helix of the amphiphilic peptide (1a-1h), circular dichroism (CD) was performed. Particularly, CD was measured at 20° C. by using JASCO model J715 spectropolarimeter. Scanning was performed at 190-250 nm three times (bandwidth: 1 nm, datapitch: 0.5 nm, speed: 100 nm/min), which were averaged to obtain CD data. Spectrum was corrected by measuring background spectrum. CD signal was recorded after modulating thereof with mean residue ellipticity [Q]. Percentage (%) of alpha-helix(fn) was calculated by the following formula. [Q]=Qobs[MRW/(10lc)]
MRW=mean residue weight (dividing molecular weight by the number of peptide bond, l=pathway length (cm), c=concentration (mg/mL). fn=([Q]222−[Q]coil)/([Q]helix−[Q]coil) [Q]helix=−40,000[…]+100t [Q]coil=640−45t
[Q]222=mean residue ellipticity at 222 nm (deg cm2 mol-1), [Q]helix=ellipticity of peptide having complete helical structure, [Q]coil=ellipticity of peptide having complete random coil structure, n=number of amino acid, t=° C.

RRE hairpin RNA = assay: Fluorescence anisotropy competition with Rev-N-rhodamine probe, binding to RRE hairpin RNA; set-up: species or system HIV; settings: 20° C., pH 7.4, read-out: Dissociation constant, RRE
Description: as §1, §2, §3

[2] = compared with the original peptide

## LAKLLKLLKKLLKLKG [1b, alanine scanned first generation peptide]
IRES domain IV hairpin
  differentiation coefficient (IRES): 2.0
  Kd: 53 nM
16S ribosomal RNA A-site
  Kd: 160 nM
TAR hairpin RNA
  Kd: 16 nM
[1]
  Alpha-helical rate (%), second value of pair: 44%
  Alpha-helical rate (%), first value of pair: 9%
RRE hairpin RNA
  Kd: 140 nM

## LKALLKLLKKLLKLKG [1c, alanine scanned first generation peptide]
IRES domain IV hairpin
  differentiation coefficient (IRES): 1.3
  Kd: 62 nM
16S ribosomal RNA A-site
  Kd: 92 nM
TAR hairpin RNA
  Kd: 87 nM
[1]
  Alpha-helical rate (%), second value of pair: 42%
  Alpha-helical rate (%), first value of pair: 10%
RRE hairpin RNA
  Kd: 56 nM

## LKKLLDabLLKKLLKWAG (LKKLL[Dab]LLKKLLKWAG-NH2; N-terminus assumed; SMILES CC(C)C[C@H](NC(=O)[C@H](CC(C)C)NC(=O)[C@H](CCCCN)NC(=O)[C@H](CCCCN)NC(=O)[C@H](CC(C)C)NC(=O)[C@H](CC(C)C)NC(=O)[C@H](CCN)NC(=O)[C@H](CC(C)C)NC(=O)[C@H](CC(C)C)NC(=O)[C@H](CCCCN)NC(=O)[C@H](CCCCN)NC(=O)[C@@H](N)CC(C)C)C(=O)N[C@@H](CCCCN)C(=O)N[C@@H](Cc1c[nH]c2ccccc12)C(=O)N[C@@H](C)C(=O)NCC(N)=O) [3e, third generation peptide, both faces modified]
IRES domain IV hairpin
  differentiation coefficient (IRES): 28
  Kd: 0.62 nM
16S ribosomal RNA A-site
  Kd: 16 nM
TAR hairpin RNA
  Kd: 14 nM
[1]
  Alpha-helical rate (%), second value of pair: 45%
  Alpha-helical rate (%), first value of pair: 39%
RRE hairpin RNA
  Kd: 22 nM

## LKKWLKLLKKLLKLAG [2o, tryptophan scanned second generation peptide]
IRES domain IV hairpin
  differentiation coefficient (IRES): 5.6
  Kd: 3.3 nM
16S ribosomal RNA A-site
  Kd: 15 nM
TAR hairpin RNA
  Kd: 34 nM
[1]
  Alpha-helical rate (%), second value of pair: 52%
  Alpha-helical rate (%), first value of pair: 4.6%
RRE hairpin RNA
  Kd: 5.9 nM

## LKKLLALLKKLLKLKG [peptide 1d, alanine scanned first generation peptide]
IRES domain IV hairpin
  differentiation coefficient (IRES): 1.0
  Kd: 150 nM
IRES domain IV hairpin; [2]
  binding strength to IRES, in words: reduced binding strength
16S ribosomal RNA A-site
  Kd: 160 nM
TAR hairpin RNA; [2]
  binding strength to TAR, in words: three fold binding strength
TAR hairpin RNA
  Kd: 150 nM
[1]
  Alpha-helical rate (%), second value of pair: 47%
  Alpha-helical rate (%), first value of pair: 12%
RRE hairpin RNA
  Kd: 150 nM

## LKKLLKLLKKWLKLAG [2s, tryptophan scanned second generation peptide]
IRES domain IV hairpin
  differentiation coefficient (IRES): 5.8
  Kd: 4.4 nM
16S ribosomal RNA A-site
  Kd: 24 nM
TAR hairpin RNA
  Kd: 43 nM
[1]
  Alpha-helical rate (%), second value of pair: 60%
  Alpha-helical rate (%), first value of pair: 27%
RRE hairpin RNA
  Kd: 9.5 nM

## LKKLLKWLOrnKLLKLAG (LKKLLKWL[Orn]KLLKLAG-NH2; N-terminus assumed; SMILES CC(C)C[C@H](NC(=O)[C@H](CCCCN)NC(=O)[C@H](CC(C)C)NC(=O)[C@H](CC(C)C)NC(=O)[C@H](CCCCN)NC(=O)[C@H](CCCN)NC(=O)[C@H](CC(C)C)NC(=O)[C@H](Cc1c[nH]c2ccccc12)NC(=O)[C@H](CCCCN)NC(=O)[C@H](CC(C)C)NC(=O)[C@H](CC(C)C)NC(=O)[C@H](CCCCN)NC(=O)[C@H](CCCCN)NC(=O)[C@@H](N)CC(C)C)C(=O)N[C@@H](C)C(=O)NCC(N)=O) [3b, third generation peptide, both faces modified]
IRES domain IV hairpin
  differentiation coefficient (IRES): 4.2
  Kd: 5.1 nM
16S ribosomal RNA A-site
  Kd: 24 nM
TAR hairpin RNA
  Kd: 22 nM
[1]
  Alpha-helical rate (%), second value of pair: 52%
  Alpha-helical rate (%), first value of pair: 34%
RRE hairpin RNA
  Kd: 18 nM
